Experimental data reported in patent publication US11352334B2, “3-(5-chloro-2-oxobenzo[d]oxazol-3(2H)-yl) propanoic acid derivatives as KMO inhibitors” (THE UNIVERSITY COURT OF THE UNIVERSITY OF EDINBURGH, priority 2013, dated 2022).

Target: T1, human KMO (Homo sapiens, UniProt O15229)
T1 construct: Full length human KMO was amplified by PCR from pcDNA5/FRT/V5-His-TOPO/hKMO; made in house; host or cells: Spodoptera frugiperda Sf9 cells (baculovirus); purified membrane fraction used
Test: KMO MS Rapidfire assay
Type: biochemical
Settings: human KMO-membranes from Sf9 cells, 10 μM Kynurenine, 200 μM NADPH, 3-HK detected by MS
Procedure: pFastbac1 GST-KMO was transposed into the baculovirus genome using the BAC-to-BAC technology (Invitrogen) and bacmid DNA was prepared and transfected into Spodoptera frugiperda (Sf9) cells using Cellfectin II (Invitrogen).
Cells were harvested after 48 hours and disrupted by blending in 50 mM Hepes, pH 7.4, 1 mM EDTA buffer containing protease inhibitors. A low speed spin (400 g) was used to remove cell debris, followed by a high speed spin (75 000 g) to pellet the membranes. The membranes were purified in a discontinuous sucrose density gradient by re-suspending in 10% (w/v) sucrose and layering over 40% (w/v) sucrose, both in the above buffer. This was centrifuged at 150 000 g and the purified membranes were taken from the interface, collected by centrifugation at 100 000 g, resuspended in buffer and aliquoted for storage at −80° C.
11 point, 3-fold serial dilutions of test compounds were prepared in DMSO and 100 nL of these solutions were dispensed into 384-well V-base polypropylene plates (Greiner Bio-one, Stonehouse, UK) using an Echo 555 acoustic dispenser (Labcyte, Sunnyvale, Calif.). This gave a final assay concentration range between 100 μM and 1.7 nM in 10 μL final assay volume (see below). 100 nL DMSO was dispensed into columns 6 and 18 for high and low controls, respectively, with prior inactivation of the enzyme in column 18 by pre-dispense of 30 μL of 0.5% (v/v) TFA. […]

T1 sequence (O15229 whole entry): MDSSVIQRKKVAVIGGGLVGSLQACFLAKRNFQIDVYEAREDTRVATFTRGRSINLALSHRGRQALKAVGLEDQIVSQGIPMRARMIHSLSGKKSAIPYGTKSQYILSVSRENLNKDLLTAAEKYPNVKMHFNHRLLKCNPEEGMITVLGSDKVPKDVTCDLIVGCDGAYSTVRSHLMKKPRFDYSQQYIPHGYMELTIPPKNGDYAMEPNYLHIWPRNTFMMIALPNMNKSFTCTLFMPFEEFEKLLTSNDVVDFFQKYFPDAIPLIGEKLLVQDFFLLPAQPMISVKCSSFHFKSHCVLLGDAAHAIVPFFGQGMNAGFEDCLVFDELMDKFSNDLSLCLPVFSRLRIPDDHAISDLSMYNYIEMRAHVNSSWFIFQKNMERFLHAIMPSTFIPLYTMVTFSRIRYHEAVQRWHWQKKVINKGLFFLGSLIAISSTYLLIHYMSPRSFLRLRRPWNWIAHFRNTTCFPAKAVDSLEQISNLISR

## Cc1cc2oc(=O)n(CCC(=O)O)c2cc1Cl [Example 1, 3-(5-Chloro-6-methyl-2-oxobenzo[d]oxazol-3(2H)-yl)propanoic Acid]
  median pIC50: 7.9
